Assay in all cases: Antibacterial activity, microbroth dilution method (MIC)
A general note: In broth dilution the organism is exposed to a series of concentrations in liquid medium.

For test [1], the system named is control Gram-negative E. coli 25922 strain. It counts as cell-based, Escherichia coli. Particulars: Escherichia coli. The method, boiled down:
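Broth microdilution against S. aureus 29213, E. coli 25922 and hypersensitive E. coli BAS849. MIC in μg/mL is the lowest drug concentration preventing macroscopically visible growth under test conditions.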

Test [2] has as its system Gram-positive Staphylococcus aureus (S. aureus) 29213. The format is cell-based. Particulars: Staphylococcus aureus, Gram-positive S. aureus 29213. The method in brief: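 In a microbroth dilution test, the minimum inhibitory concentration was defined as the lowest compound level preventing growth seen by eye, and was given in μg/mL.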
Test [3] relates to super sensitive Gram-negative Escherichia coli (E. coli) BAS849. It counts as cell-based. As to conditions: Escherichia coli; super sensitive Gram-negative E. coli BAS849; microbroth dilution; read-out: MIC, E. coli BAS849. The method, boiled down: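 Using broth microdilution, MIC endpoints (μg/mL) mark where visible growth no longer appears; the panel spans sensitive and control Gram-negative strains plus a Gram-positive strain.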

Counter-ions that a name gives are not always drawn.

Regarding `CCCCCCCNCc1cc2cc3c(cc2n1C)CCCc1c-3[nH]c(=O)c(C(=O)O)c1O.Cl` [Cpd 139, 10-((heptylamino)methyl)-4-hydroxy-9-methyl-2-oxo-1,2,5,6,7,9-hexahydropyrido[3′,2′:6,7]cyclohepta[1,2-f]indole-3-carboxylic acid hydrochloride], the values for the MIC in test [1], in test [2] and in test [3] were 12.5 to 150 µg/mL, 1 to 3.5 µg/mL and < 1 µg/mL, respectively.

Consider `CN1CCC[C@@H]2CN(c3ccc4c(c3)CCCc3c-4[nH]c(=O)c(C(=O)O)c3O)C[C@@H]21.Cl` [Cpd 115, 4-hydroxy-9-((4aR,7aR)-1-methylhexahydro-1H-pyrrolo[3,4-b]pyridin-6(2H)-yl)-2-oxo-2,5,6,7-tetrahydro-1H-benzo[6,7]cyclohepta[1,2-b]pyridine-3-carboxylic acid hydrochloride], for which the minimum inhibitory concentration (MIC) (usually the lowest concentration found to suppress growth) in test [1] lay within 12.5 to 150 µg/mL; in test [2] it was 12.5 to 150 µg/mL; in test [3], 3.5 to 12.5 µg/mL.

For the compound `N[C@@H]1[C@H]2CN(c3cc4c(c(F)c3F)-c3[nH]c(=O)c(C(=O)O)c(O)c3CCC4)C[C@@H]12` [Cpd 124, 9-((cis,cis)-6-amino-3-azabicyclo[3.1.0]hexan-3-yl)-10,11-difluoro-4-hydroxy-2-oxo-2,5,6,7-tetrahydro-1H-benzo[6,7]cyclohepta[1,2-b]pyridine-3-carboxylic acid hydrochloride], the minimal inhibitory concentration (MIC) in test [1] is 3.5 to 12.5 µg/mL; in test [2], 12.5 to 150 µg/mL; in test [3] it was < 1 µg/mL.

Take `Cl.Cn1c(CNCCO)cc2cc3c(cc21)CCCc1c-3[nH]c(=O)c(C(=O)O)c1O` [Cpd 147, 4-hydroxy-10-(((2-hydroxyethyl)amino)methyl)-9-methyl-2-oxo-1,2,5,6,7,9-hexahydropyrido[3′,2′:6,7]cyclohepta[1,2-f]indole-3-carboxylic acid hydrochloride]: the values for the MIC in test [1], in test [2] and in test [3] were 3.5 to 12.5 µg/mL, 12.5 to 150 µg/mL and < 1 µg/mL, respectively.

Turning to `CN(C)C1CCN(c2ccc3c(c2)OCCc2cc(C(=O)O)c(=O)[nH]c2-3)C1.Cl` (stereo not drawn) [Cpd 82, 9-(3-(dimethylamino)pyrrolidin-1-yl)-2-oxo-1,2,5,6-tetrahydrobenzo[2,3]oxepino[4,5-b]pyridine-3-carboxylic acid hydrochloride], the minimal inhibitory concentration (MIC) lay in the range of 12.5 to 150 µg/mL in test [1], 12.5 to 150 µg/mL in test [2] and 3.5 to 12.5 µg/mL in test [3].

Consider `CCC(C)NCc1cc2cc3c(cc2n1C)CCCc1c-3[nH]c(=O)c(C(=O)O)c1O.Cl` (stereo not drawn) [Cpd 146, 10-((sec-butylamino)methyl)-4-hydroxy-9-methyl-2-oxo-1,2,5,6,7,9-hexahydropyrido[3′,2′:6,7]cyclohepta[1,2-f]indole-3-carboxylic acid hydrochloride], for which the MIC was < 1 µg/mL in test [1], 3.5 to 12.5 µg/mL in test [2] and < 1 µg/mL in test [3].

With `CCC(C)NCc1cc2cc3c(cc2n1C)OCCc1c-3[nH]c(=O)c(C(=O)O)c1O.Cl` (stereo not drawn) [Cpd 168, 10-((sec-butylamino)methyl)-4-hydroxy-9-methyl-2-oxo-2,5,6,9-tetrahydro-1H-pyrido[2′,3′:4,5]oxepino[3,2-f]indole-3-carboxylic acid hydrochloride], the minimal inhibitory concentration (MIC) in test [1] was < 1 µg/mL; in test [2] it was 3.5 to 12.5 µg/mL; in test [3], < 1 µg/mL.

`CC(C)NCc1cc2cc3c(cc2n1C)NCCCc1c-3[nH]c(=O)c(C(=O)O)c1O.Cl` [Cpd 105, 4-hydroxy-11-((isopropylamino)methyl)-10-methyl-2-oxo-2,5,6,7,8,10-hexahydro-1H-pyrido[2′,3′:4,5]azocino[3,2-f]indole-3-carboxylic acid hydrochloride]: the MIC in test [1] is 3.5 to 12.5 µg/mL; in test [2] it was 12.5 to 150 µg/mL; in test [3], 1 to 3.5 µg/mL.

For `CC(C)NCc1cc2cc3c(cc2n1C)C(C)CCc1c-3[nH]c(=O)c(C(=O)O)c1O.Cl` (stereo not drawn) [Cpd 64, 4-hydroxy-10-((isopropylamino)methyl)-7,9-dimethyl-2-oxo-1,2,5,6,7,9-hexahydropyrido[3′,2′:6,7]cyclohepta[1,2-f]indole-3-carboxylic acid hydrochloride], the MIC lay within 3.5 to 12.5 µg/mL in test [1], 12.5 to 150 µg/mL in test [2] and 1 to 3.5 µg/mL in test [3].

The values are drawn from patent publication US20150038438A1, “ANTIBACTERIAL COMPOUNDS AND METHODS FOR USE” (PTC THERAPEUTICS, INC., priority 2011, published 2015).
